Consider six compounds from patent publication US11691947B2, “Isoindoline compositions and methods for treating neurodegenerative disease” (priority 2014, dated 2023).

“Also recorded” adds a separate entry of the source.

Series [1] concerns Abeta 42 oligomer-induced synapse loss in primary neurons. Kind of series: Abeta oligomer-induced synapse loss assay. The series is classed as cell-based.
Description: The number of synapses can also be quantified in this assay by immunofluorochemistry.
Primary hippocampal neuronal culture is established as in the membrane trafficking assay above. […] Pretreatment with test compounds for 1 hr and addition of Abeta oligomers or no oligomer (vehicle alone) is followed by incubation for an additional 23 hrs.
The plates are then washed 3× with PBS for 5 min each. The plates are blocked at RT for 1 hr in 5% goat serum and 0.5% Triton X-100 in PBS. Primary antibodies (anti-MAP 2 polyclonal, Millipore #AB5622 and anti-Beta Amyloid 6E10 monoclonal, Covance #SIG-39300, at 1 microgram/ml, and rabbit polyclonal anti-synaptophysin, Anaspec, at 0.2 microgram/ml) were diluted 1:1000 in 5% goat serum with PBS. Primary antibodies are incubated overnight at 4° C. The plates are then washed 3× with PBS for 5 min each. Secondary antibodies (Alex Flor 488 polyclonal, Invitrogen #A11008 and Alexa Flor 647 monoclonal, Invitrogen #A21235) are diluted 1:1000 in 5% goat serum with PBS. Secondary antibodies are incubated at RT for 1 hr. The plates are washed once with PBS. DAPI (4′,6-diamidino-2-phenylindole, Invitrogen) is then applied at 0.03 ug/ul and incubated at RT for 5 min, then washed with PBS.
For the next series, the system named is caspase-3. The conditions noted are these: cited from earlier work; for caspase-3 activation: tumor cells and neurons, WO2013/029060 FIGS. 10A and 10B.
Series [2] relates to MDA-MB-435 or MDA-MB231 or SKOV-3 cells. Kind of series: MTS tumor cell viability assay (agonist/antagonist activity of sigma-2 ligands). Type of series: cell-based. Here is the method: The cytotoxicity of test compounds is determined using the CellTiter96 Aqueous One Solution Assay (Promega, Madison, Wis.). Briefly, MDA-MB-435 or MDA-MB231 or SKOV-3 cells were seeded in a 96-well plate at a density of 2000 cells/well on the day prior to treatment with sigma-2 receptor selective ligands. After a 24 hour treatment, the CellTiter 96 AQueous One Solution Reagent is added to each well, and the plate incubated for 2 hours at 37° C. The plate is read at 490 nm in a Victor3 plate reader (PerkinElmer Life and Analytical Sciences, Shelton, Conn.). The EC^50 value, defined as the concentration of the sigma ligand required to inhibit cell viability by 50% relative to untreated cells, is determined from the dose response curve for each cell line. Siramesine is accepted as an agonist.

The subject of the next series is neuronal cultures. Nature of the series: Nuclear intensity/morphology in neuronal cultures treated with sigma compounds. The series is classed as cell-based. The conditions noted are these: 24 hours treatment, compared to vehicle. Here is the method:
Neuronal cultures are treated with various concentrations of sigma compounds for 24 hours and nuclear intensity compared to vehicle is measured. […] Isoindoline test compounds of the present disclosure are analyzed in this assay to help determine neuronal phenotype, results are shown in Table 2.

Turning to `CCCN(CCC)CCc1ccc(OC)c(OCCc2ccccc2)c1` [NE-100], in series [1], the “elimination of Abeta 42 oligomer-induced synapse loss” value was “completely eliminated synapse loss”.
Take `COc1cc2c(cc1OC)CN(CCCCNC(=O)c1cc(C)ccc1OC)CC2` [RHM-1, N-[4-(3,4-dihydro-6,7-dimethoxyisoquinolin-2(1H)-yl)butyl]-2-methoxy-5-methylbenzamide]: the “block of caspase-3 activation by agonist SV-119 in neurons” value with caspase-3 (neurons, WO2013/029060 FIG. 10B) is given as “not able to block activation”. The caspase-3 activation result with caspase-3 is listed as “do not induce caspase-3 activity”. The “inhibition of caspase-3 activation in tumor cells” value with caspase-3 (tumor cells, WO2013/029060 FIG. 10A) is “inhibits the activation in tumor cells”. The Action entry in series [2] is listed as “Antagonist”. Moreover, in the series on neuronal cultures, the “nuclear morphology / nuclear intensity in neurons” value is listed as “do not decrease nuclear intensity”.
In the case of `CCC(Oc1ccc(Cl)cc1)C(=O)OC1CC2CCC(C1)N2C` (stereo not drawn) [SM-21], in series [1], the “elimination of Abeta 42 oligomer-induced synapse loss” value was “only weakly active in eliminating synapse loss” and the “recovery of synapse loss” value was 20%.
For `COc1ccc(C)cc1NC(=O)OC1C[C@H]2CCC[C@@H](C1)N2CCCCCCN` (stereo partly drawn) [SV-119], the caspase-3 activation entry with caspase-3 was “activate caspase-3 in tumor cells and neurons”. In series [2], the Action entry was “Full agonist”. Also, the “nuclear morphology / nuclear intensity in neurons” value in the series on neuronal cultures is recorded as “cause significant abnormal nuclear morphology in neurons”.
`Fc1ccc(-n2cc(CCCCN3CCC4(CC3)OCc3ccccc34)c3ccccc32)cc1` [Siramesine]: the caspase-3 activation result in the series with caspase-3 was “activate caspase-3 in tumor cells and neurons; also recorded: induces caspase-3 activity”. In addition, the Action result in series [2] is reported as “Full agonist”. For the same compound, the “nuclear morphology / nuclear intensity in neurons” value with neuronal cultures was “cause significant abnormal nuclear morphology in neurons”.
Take `O=C(CCCN1CCC(O)(c2ccc(Cl)cc2)CC1)c1ccc(F)cc1` [haloperidol]: in series [1], the “elimination of Abeta 42 oligomer-induced synapse loss” value is recorded as “completely eliminated synapse loss”.
